One data set has as its system TGCT or DTGCT. As to conditions: cited from earlier work.
For data set [1] the following is noted: rat, 4-week, cited from earlier work.
The conditions of data set [2]: rat, six-month, cited from earlier work.
A further data set deals with M-NFS-60 cells. The data set is described as follows: cells. Format: cell-based. As to conditions: Mus musculus.
A further data set is described as follows: clinical. As to conditions: human, in vivo, 800 mg.
For data set [3] the following is noted: human, in vivo, 800 mg.
The conditions of data set [4]: human; recommended dose 800 mg daily; cited from earlier work.

Results on one compound are retold here after patent US11679110B2, “Methods of treating disorders using CSF1R inhibitors” (Deciphera Pharmaceuticals, LLC, priority 2018, dated 2023).

“Also recorded” adds a separate entry of the source. Where two headings read alike, the source gives them in different places.

Regarding `FC(F)(F)c1ccc(CNc2ccc(Cc3c[nH]c4ncc(Cl)cc34)cn2)cn1` [pexidartinib], the ORR with TGCT or DTGCT (ENLIVEN phase 3 randomized trial, maintenance dose 400 mg twice daily) is 39%. Besides, in the data set on TGCT or DTGCT (TGCT or DTGCT patients, 1000 mg daily, phase 2 clinical study), the “overall response rate (ORR)” value was 52%. Besides, the maximum tolerated dose in the data set on TGCT or DTGCT (TGCT patients, clinical use) is listed as 400 mg twice daily. Further, in the data set on TGCT or DTGCT (patients), the “liver injury / hepatotoxicity” value is recorded as “mixed or cholestatic hepatotoxicity; also recorded: black box warning of hepatotoxicity”; the “maximum tolerated dose and chosen phase 2 dose” value is 1000 mg per day. Further, the NOAEL result in data set [1] (20, 60, 200 mg/kg/day oral gavage) is reported as “could not be established”. Also, in data set [1] (all dose groups), the liver enzymes entry is reported as “increased liver enzymes” and the liver histology finding entry was “dose-related hepatocellular centrilobular hypertrophy”. In addition, the “deaths of main study animals due to treatment-related immunocompromise” value in data set [2] (60 mg/kg daily) is recorded as 3. Also, the “liver findings in female rats” value in data set [2] (60 mg/kg, female) is “biliary cysts and increased gamma-glutamyl transferase (GGT) levels”. Further, in data set [2] (≥20 mg/kg), the liver findings result is “hemosiderin deposition and necrotizing inflammation”. For the same compound, the IC50 in the data set on M-NFS-60 cells (read-out: average IC50, inhibition of M-NFS-60 cell proliferation, 10 ng/mL CSF1) came to 15.7 nM. The IC50 in the data set on M-NFS-60 cells (read-out: average IC50, inhibition of M-NFS-60 cell proliferation, 1,000 ng/mL CSF1) was 59.6 nM. The AUC(0-t) – broadly, the area under the concentration-time curve up to a stated or last time point – in “clinical” is 155 µg·h/mL. Besides, the “AUC0-24 clinical exposure (estimated from label AUC0-12)” value in data set [3] is 154.93 µg·h/mL. The “AUC0-12 clinical exposure cited in the label” value in data set [4] was 77465 ng·h/mL.
